Data set [1] can be described thus: Physical stability (particle size growth) upon storage. Type of data set: physicochemical. The note with it: at least three months, ambient conditions (22±2° C. and 60% relative humidity). From the text:
The physical stability shall be measured by using a Sympatec Dry Dispersion Size Analyzer, while the chemical stability shall be determined according to known method such as HPLC.

Data set [2] in a line: Particle size by laser light diffraction (Sympatec Dry Dispersion Size Analyzer). Type of data set: physicochemical. The note with it: for Span: Span=[d(v,0.9)-d(v,0.1)]/d(v,0.5); for d[v,10] / d[v,50] / d[v,90]: average of triplicate. The arrangement: d[v,10] / d[v,50] / d[v,90]: unit not given here. As for the experimental part: The particle size was determined by Laser light diffraction using the Sympatec Dry Dispersion Size Analyzer (Clausthal-Zellerfeld, Germany).
The powder was dispersed for two measurement conditions at an air pressure of 1 and 4 bar.
The average d[v,10], d[v,50], d[v,90] values were calculated from triplicate measurements. The span was calculated using the following equation: Span=[d(v,0.9)−d(v,0.1)]/d(v,0.5)

In the case of `C[N+]1(C)CCC(OC(=O)C(O)(c2ccccc2)C2CCCC2)C1.[Br-]` (racemic) [Example 1, (3S,2′R), (3R,2′S)-3-[(Cyclopentylhydroxyphenylacetyl)oxy]-1,1-dimethylpyrrolidinium bromide racemic mixture], the “growth of the particle size upon storage” value in data set [1] is “No significant growth of the particle size”. In data set [2] (dispersion pressure 1.0 bar), the Span is 1.50, the “d[v,10]” value turned out to be 0.81, the “d[v,50]” value amounted to 4.17 and the “d[v,90]” value came to 7.05. Moreover, in data set [2] (dispersion pressure 4.0 bar), the Span is recorded as 2.19, the “d[v,10]” value is 0.43, the “d[v,50]” value is 2.29 and the “d[v,90]” value is 5.45.

The values are drawn from patent US9925168B2, “Preparation of micronized particles of an antimuscarinic compound by hydrodynamic cavitation” (CHIESI FARMACEUTICI S.P.A., priority 2016, dated 2018).
